Patent publication US20020048572A1, “Treatment of hypertriglyceridemia and other conditions using LXR modulators” (priority 2000, published 2002)

How the values were obtained:
C57BL/6 mice = assay: Plasma lipid analysis in C57BL/6 mice; type: in vivo, mouse; settings: oral treatment
Source text: FIG. 8. Plasma lipid levels in animals treated with LXR agonist T0901317. The concentrations of (A) plasma triglycerides and (B) HDL-cholesterol for C57BL/6 mice (n=5, for each treatment group, M, males, F, females). (C) Separation of Golden Syrian hamster plasma by fast protein liquid chromatography (FPLC) in combination with analysis of the triglyceride content across PPLC fractions. Lipid data are reported as the mean ±SD for the number of determinations (animals) described in each experiment. Statistical significance (kybd) was defined as P<0.05 (ANOVA using SAS programming statistical test for controls and LXR agonist-treated animals). C57BL/6 mice (Charles River Laboratories) were between 6 and 10 wk old and weighed ˜20-30 g at the initiation of treatment. Golden Syrian Hamsters (Harlan Sprague-Dawley) were between 12 and 16 wk old (80-150 g). Animals were fed regular chow diets containing ˜4% fat and 0.02% cholesterol (PMI Pi-colab 5053 Chow). LXRα and β−/− mice were reared at the University of Texas Southwestern (UTSW) Medical Center at Dallas in accordance with the Institutional Animal Care and Research Advisory Committee at the UTSW Medical Center. Mice at UTSW were maintained on a 12 h light/12 h dark cycle and fed ad libitum a cereal-based mouse chow diet (No. 7001, Harlan Teklad). Plasma was prepared from euthanized mice using standard centrifugation techniques and analyzed for plasma total cholesterol, HDL cholesterol, and triglyceride concentrations using a Hitachi 704 Clinical Analyzer. FPLC of plasma lipoproteins was accomplished using 200 μL aliquots of pooled plasma (from three to five animals) and fractionated on Superose 6 columns (Pharmacia). Cholesterol, triglyceride, and phospholipid concentrations in the fractions were determined enzymatically with reagents from Boehringer, Sigma, and Wako, respectively. Hepatic lipids were extracted and analyzed for triglyceride essentially as described (Bucolo, G. and David, H., Clin. Chem. 19:476-482 (1973); Yokode et al., Science 250:1273-1275 (1990)).

LXRα = biological target: T1, LXRα (Homo sapiens, UniProt Q13133); settings: fold relative to DMSO
T1 sequence (Q13133 1-447): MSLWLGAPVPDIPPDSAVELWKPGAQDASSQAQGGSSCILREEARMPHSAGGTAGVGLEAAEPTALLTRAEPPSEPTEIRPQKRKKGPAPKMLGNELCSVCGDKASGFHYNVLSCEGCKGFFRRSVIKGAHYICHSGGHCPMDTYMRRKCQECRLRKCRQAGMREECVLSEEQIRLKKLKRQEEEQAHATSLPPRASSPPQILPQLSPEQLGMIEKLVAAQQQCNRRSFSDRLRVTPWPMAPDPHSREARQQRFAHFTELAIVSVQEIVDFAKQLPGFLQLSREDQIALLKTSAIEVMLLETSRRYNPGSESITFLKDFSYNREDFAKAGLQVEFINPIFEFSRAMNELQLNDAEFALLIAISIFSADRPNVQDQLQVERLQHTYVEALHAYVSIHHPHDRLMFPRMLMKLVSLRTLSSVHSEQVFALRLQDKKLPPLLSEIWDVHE

LXRα/β−/− mice = assay: Plasma and hepatic lipid analysis in LXRα/β−/− mice; type: in vivo, mouse
Method: FIG. 10. […] Pooled plasma (50 μL from each of five mice per group) was fractionated and lipids analyzed as described. Shown are the concentrations for (A) FPLC triglyceride, (B) FPLC phospholipid, and (C) hepatic triglyceride. (D) Northern blot analysis of hepatic SREEP-I, SREBP-2, SCD-1, FAS, and ACC mRNA levels.
C57BL/6 mice (Charles River Laboratories) were between 6 and 10 wk old and weighed ˜20-30 g at the initiation of treatment. Golden Syrian Hamsters (Harlan Sprague-Dawley) were between 12 and 16 wk old (80-150 g). […] LXRα and β−/− mice were reared at the University of Texas Southwestern (UTSW) Medical Center at Dallas in accordance with the Institutional Animal Care and Research Advisory Committee at the UTSW Medical Center.
FPLC of plasma lipoproteins was accomplished using 200 μL aliquots of pooled plasma (from three to five animals) and fractionated on Superose 6 columns (Pharmacia). Cholesterol, triglyceride, and phospholipid concentrations in the fractions were determined enzymatically with reagents from Boehringer, Sigma, and Wako, respectively.

induction of transcriptional activity of LXRα (LXRα): eightfold
SMILES: O=S(=O)(c1ccccc1)N(CC(F)(F)F)c1ccc(C(O)(C(F)(F)F)C(F)(F)F)cc1 [T0901317, N-(2,2,2-trifluoro-ethyl)-N-[4-(2,2,2-trifluoro-1-hydroxy-1-trifluoromethyl-ethyl)-phenyl]-benzenesulfonamide]
HDL-phospholipid (C57BL/6 mice): comparable increases
plasma total cholesterol (mainly HDL cholesterol) (C57BL/6 mice): comparable increases
plasma triglycerides (C57BL/6 mice): significant elevations
plasma very low density lipoproteins (VLDL) triglycerides (C57BL/6 mice): Increases
total plasma triglyceride (LXRα/β−/− mice; LXRα/β−/− mice vs vehicle-treated LXRα/β−/−): scant increases
hepatic triglyceride levels (LXRα/β−/− mice; LXRα/β−/− mice, 7 d): no significant elevation
plasma VLDL-triglyceride (LXRα/β−/− mice; LXRα/β−/− mice, 7 d): relatively minute increase
